Results: patent US20100292289A1 (priority 2007, published 2010)
Like-named read-outs stand apart in the source and are kept apart here.

Tests used:
Format in all cases: cell-based
GLP-1 receptor [1] = biological target: T1, GLP-1 receptor (Homo sapiens, UniProt P43220); experiment: FLIPR calcium flux assay, antagonist format, GLP-1; conditions: for inhibition at 1 µM: read-out: % Inhibition Antagonist GLP-1
Description: (§1) A FLIPR assay was conducted to monitor agonist and antagonist selectivity for compounds of the invention against the CBI and GLP-1 receptors. Percentage activation and percentage inhibition values were determined for each compound on each of the GPCRs listed above. Agonist selectivity was determined upon initial addition of compounds followed by 10 minute incubation at 25° C. Following compound incubation, reference agonists were added at EC80 to determine percentage inhibition.
(§2) Agonist percentage activation determinations were obtained by assaying sample compounds and referencing the Emax control for each of the GPCRs profiled. Antagonist percentage inhibition determinations were obtained by assaying sample compounds and referencing the control EC80 wells for each of the GPCRs profiled. The protocol design is as follows:
(§3) Unless specified otherwise, all sample compounds were diluted in 100% anhydrous DMSO including all serial dilutions. Occasionally sample compounds were provided in a different solvent, in this case all master stock dilutions were performed in the specified diluent. All control wells contained identical solvent final concentrations as sample compound wells.
(§4) Sample compounds were transferred from a master stock solution into a daughter plate that was used in the assay. Each sample compound was diluted into assay buffer (1×HBSS with 20 mM HEPES) at an appropriate concentration to obtain final concentrations.
(§5) Using the EC50 values determined previously, stimulated all pre-incubated sample compound and reference antagonist (if applicable) wells with EC80 of reference agonist. Read for 90 seconds using the FLIPRTETRA. (This assay added reference agonist to respective wells—then fluorescence measurements were collected to calculate percentage inhibition.)
(§6) All plates were subjected to appropriate baseline corrections. Once baseline corrections were processed, maximum fluorescence values were exported and data manipulated to calculate percentage activation, percentage inhibition, Z′, EC50, and IC50. Percentage activation data was calculated using Emax as 100% control. Percentage inhibition was calculated using EC80 as 0% inhibition.

GLP-1 receptor [2] = biological target: T1, GLP-1 receptor; experiment: FLIPR calcium flux assay, agonist format, GLP-1; conditions: Emax of reference ligand Glucagon as 100%; for % Activation Agonist GLP-1: 1 μM
Description: as §1, §2, §3, §4
(§7) All sample compounds were plated at 1 μM in duplicate for assaying against all GPCRs. Reference agonists were handled as mentioned above serving as assay control. These reference agonists were handled as described above for both EMax and EC80 control wells. Assay was read for 90 seconds using the FLIPRTETRA. (This assay run added sample compounds and reference agonist to respective rows.) At the completion of the first “Single Addition” assay run, assay plate was removed from the FLIPRTetra and placed at 25° C. for 10 minutes.
as §6

CB1 receptor [3] = biological target: T2, CB1 receptor (Homo sapiens, UniProt P21554); experiment: FLIPR calcium flux assay, agonist format, CB1; conditions: Emax of reference agonist CP-55,940 as 100%; for % Activation Agonist CB1: 1 μM
T2 sequence (P21554 whole entry): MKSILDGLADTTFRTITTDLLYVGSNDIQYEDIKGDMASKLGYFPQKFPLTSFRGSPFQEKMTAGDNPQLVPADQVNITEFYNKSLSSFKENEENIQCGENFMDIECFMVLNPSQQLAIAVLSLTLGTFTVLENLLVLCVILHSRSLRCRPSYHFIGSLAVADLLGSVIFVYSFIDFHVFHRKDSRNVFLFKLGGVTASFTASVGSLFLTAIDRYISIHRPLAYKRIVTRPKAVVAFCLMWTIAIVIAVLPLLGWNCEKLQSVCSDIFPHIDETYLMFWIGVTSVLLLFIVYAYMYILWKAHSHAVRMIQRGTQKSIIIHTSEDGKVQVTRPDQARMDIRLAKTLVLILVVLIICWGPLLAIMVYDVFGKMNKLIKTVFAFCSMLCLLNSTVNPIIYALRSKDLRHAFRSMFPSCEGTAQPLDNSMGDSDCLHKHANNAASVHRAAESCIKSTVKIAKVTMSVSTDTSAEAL
Description: as §1, §2, §3, §4, §7, §6

CB1 receptor [4] = biological target: T2, CB1 receptor; experiment: FLIPR calcium flux assay, antagonist format, CB1; conditions: reference agonist CP-55,940 at EC80 as 0% inhibition; for % Inhibition Antagonist CB1: 1 μM
Description: as §1, §2, §3, §4, §5, §6

[5] = 1 μM, reference ligand Glucagon at EC80 as 0% inhibition

T1 sequence (P43220 24-463): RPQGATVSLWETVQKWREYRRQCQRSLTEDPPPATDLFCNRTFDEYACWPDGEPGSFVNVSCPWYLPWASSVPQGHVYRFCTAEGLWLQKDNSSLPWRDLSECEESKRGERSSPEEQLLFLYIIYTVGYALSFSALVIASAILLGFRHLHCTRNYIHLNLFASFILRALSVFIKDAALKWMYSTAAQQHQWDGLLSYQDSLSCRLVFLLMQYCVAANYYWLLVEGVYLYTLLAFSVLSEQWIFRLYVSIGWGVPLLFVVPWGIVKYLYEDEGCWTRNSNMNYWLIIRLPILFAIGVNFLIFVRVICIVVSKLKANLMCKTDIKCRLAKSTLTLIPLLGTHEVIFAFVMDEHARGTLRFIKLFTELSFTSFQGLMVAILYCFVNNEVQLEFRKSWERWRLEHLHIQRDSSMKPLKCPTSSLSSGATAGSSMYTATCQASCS

Row | Structure (SMILES) | inhibition at 1 µM (GLP-1 receptor [1]; [5]) [%] | activation at 1 µM (GLP-1 receptor [2]) [%] | activation at 1 µM (CB1 receptor [3]) [%] | inhibition at 1 µM (CB1 receptor [4]) [%] | % Inhibition Antagonist GLP-1 (GLP-1 receptor [1]; [5]) [%] | % Activation Agonist GLP-1 (GLP-1 receptor [2]) [%] | % Activation Agonist CB1 (CB1 receptor [3]) [%] | % Inhibition Antagonist CB1 (CB1 receptor [4]) [%] | inhibition at 1 µM (GLP-1 receptor [1]) [%]
1 | C[C@@H](C(=O)N(C)CC[C@@H](Oc1ccc(C(F)(F)F)cc1)c1ccccc1)c1ccc(C(F)(F)F)cc1 [Compound 33c] | 0.2 | 0.8 | -0.9 | 80.1 | – | – | – | – | –
2 | C[C@H]1CCN(C(C(=O)NCCOc2ccc(C(F)(F)F)cc2)c2nc(-c3ccc(C(F)(F)F)cc3)no2)C[C@@H]1COc1ccc(C(F)(F)F)cc1 (stereo partly drawn) [Compound 20] | – | – | – | – | −14.4 | 7.5 | 1.9 | 14.5 | –
3 | CC(C(=O)N(C)CC[C@H](Oc1ccc(C(F)(F)F)cc1)c1ccccc1)c1ccc(CN(C)C)cc1 (stereo partly drawn) [Compound 25b] | 6.9 | -3.3 | 0.2 | 15.2 | – | – | – | – | –
4 | CN(Cc1ccccc1)C1CCN(C(C(=O)NCCOc2ccc(C(F)(F)F)cc2)c2nc(-c3ccc(C(F)(F)F)cc3)no2)CC1 (stereo not drawn) [Compound 24] | – | – | – | – | −1.6 | 5.9 | 1.6 | 4.6 | –
5 | C[C@@H](C(=O)N(C)CC[C@H](Oc1ccc(C(F)(F)F)cc1)c1ccccc1)c1ccc(C(F)(F)F)cc1 [Compound 33e] | 9.4 | 0.4 | 1.7 | 0.8 | – | – | – | – | –
6 | COc1ccc2c(c1)c(CC(=O)NCC[C@@H](Oc1ccc(C(F)(F)F)cc1)c1ccccc1)c(C)n2C(=O)c1ccc(Cl)cc1 [Compound 7a] | 0 | 4.2 | -0.5 | 46.9 | – | – | – | – | –
7 | CCc1ccc(C(C)C(=O)N(C)CC[C@H](Oc2ccc(C(F)(F)F)cc2)c2ccccc2)cc1 (stereo partly drawn) [Compound 34b] | 1.6 | 0.2 | -1.9 | 76.4 | – | – | – | – | –
8 | COc1ccc2c(c1)c(CC(=O)N(C)CCC(Oc1ccc(C(F)(F)F)cc1)c1ccccc1)c(C)n2C(=O)c1ccc(Cl)cc1 (stereo not drawn) [Compound 15] | -5.1 | -0.2 | 0 | 34.4 | – | – | – | – | –
9 | CC(C)Cc1ccccc1C(C)C(=O)N(C)CC[C@@H](Oc1ccc(C(F)(F)F)cc1)c1ccccc1 (stereo partly drawn) [Compound 38a] | – | – | – | 98.5 | – | – | – | – | -20.2
10 | CC(C)Cc1ccc(C2(C(=O)N(C)CC[C@H](Oc3ccc(C(F)(F)F)cc3)c3ccccc3)CC2)cc1 [Compound 36b] | 5.5 | 0.5 | -1.1 | 15.5 | – | – | – | – | –
11 | CC(C)Cc1cccc(C(C)C(=O)N(C)CC[C@H](Oc2ccc(C(F)(F)F)cc2)c2ccccc2)c1 (stereo partly drawn) [Compound 35b] | 0.3 | 3.8 | 1.1 | 38.9 | – | – | – | – | –
12 | CC(C)Cc1ccc(C2(C(=O)N(C)CC[C@@H](Oc3ccc(C(F)(F)F)cc3)c3ccccc3)CC2)cc1 [Compound 36a] | 11 | 4.4 | -1.2 | 59.9 | – | – | – | – | –
13 | CC(C)Cc1cccc(C(C)C(=O)N(C)CC[C@@H](Oc2ccc(C(F)(F)F)cc2)c2ccccc2)c1 (stereo partly drawn) [Compound 35a] | 7.7 | -0.9 | -1 | 80.5 | – | – | – | – | –
14 | C[C@H](C(=O)N(C)CCC(Oc1ccc(C(F)(F)F)cc1)c1ccccc1)c1cccc(C(=O)c2ccccc2)c1 (stereo partly drawn) [Compound 14] | 17.2 | -2.4 | 1.2 | 56.6 | – | – | – | – | –
15 | C[C@@H]1CCN(C(C(=O)NCC[C@@H](Oc2ccc(C(F)(F)F)cc2)c2ccccc2)c2nc(-c3ccc(C(F)(F)F)cc3)no2)C[C@@H]1COc1ccc(C(F)(F)F)cc1 (stereo partly drawn) [Compound 18] | – | – | – | – | – | 20.6 | 6.2 | – | –
16 | C[C@H](C(=O)N(C)CC[C@H](Oc1ccc(C(F)(F)F)cc1)c1ccccc1)c1ccc(C(F)(F)F)cc1 [Compound 33f] | 11.5 | -3.5 | -0.5 | 34 | – | – | – | – | –
